Test results taken from ChEMBL document CHEMBL1142811, “Design and syntheses of melanocortin subtype-4 receptor agonists. Part 2: discovery of the dihydropyridazinone motif” (Bioorg Med Chem Lett, 2005).

Each compound was assayed against T1, Melanocortin receptor 4 (Homo sapiens, UniProt P32245) (assay: Inhibition of [125I]-NDP- alpha-MSH binding to human melanocortin 4 receptor expressed in CHO cells).
Format: cell-based

T1 sequence (P32245 whole entry): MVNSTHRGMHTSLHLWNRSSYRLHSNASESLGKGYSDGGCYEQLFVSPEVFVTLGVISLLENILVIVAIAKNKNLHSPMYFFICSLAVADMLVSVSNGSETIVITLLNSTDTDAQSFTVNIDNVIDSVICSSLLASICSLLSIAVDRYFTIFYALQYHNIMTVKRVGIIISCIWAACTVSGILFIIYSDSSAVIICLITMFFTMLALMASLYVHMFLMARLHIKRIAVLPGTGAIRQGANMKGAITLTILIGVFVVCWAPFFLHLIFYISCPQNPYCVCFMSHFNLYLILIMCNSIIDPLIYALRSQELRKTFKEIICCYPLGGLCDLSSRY

| SMILES | IC50 |
| --- | --- |
| COc1ccc(-n2nc(Sc3ccc(Cl)cc3)cc(CC[C@@H](C)NC(=O)[C@H]3CCNC[C@@H]3c3ccc(C(F)(F)F)cc3)c2=O)cc1 | 200 nM |
| COc1ccc(N2N=C(Sc3ccc(Cl)cc3)CC(CC[C@@H](C)NC(=O)[C@H]3CCNC[C@@H]3c3ccc(F)cc3)C2=O)cc1 (stereo in doubt; 62) | 540 nM |
| COc1ccc(N2N=C(Sc3ccc(Cl)cc3)CC(CC[C@@H](C)NC(=O)[C@@H]3CNCC[C@H]3c3ccc(F)cc3)C2=O)cc1 (stereo in doubt; 61) | 690 nM |
| COc1ccc(-n2nc(Sc3ccc(Cl)cc3)cc(CC[C@@H](C)NC(=O)[C@H]3CNC[C@@H]3c3ccccc3)c2=O)cc1 | 98 nM |
| COc1ccc(N2N=C(Sc3ccc(Cl)cc3)CC(CC[C@@H](C)NC(=O)C3CNC[C@H]3c3ccc(F)cc3)C2=O)cc1 (single isomer, unassigned; 69) | 430 nM |
| COc1ccc(-n2nc(Sc3ccc(Cl)cc3)cc(CC[C@@H](C)NC(=O)[C@H]3CNC[C@@H]3c3ccccc3F)c2=O)cc1 | 160 nM |
| COc1ccc(N2N=C(Sc3ccc(Cl)cc3)CC(CC[C@@H](C)NC(=O)[C@@H]3CCNC[C@H]3c3ccc(F)cc3)C2=O)cc1 (stereo in doubt; 64) | 1300 nM |

Stronger by IC50, values ahead:

| IC50 | SMILES |
| --- | --- |
| 45 nM | COc1ccc(-n2nc(Sc3ccc(Cl)cc3)cc(CC[C@@H](C)NC(=O)[C@H]3CNC[C@@H]3c3ccc(Cl)cc3)c2=O)cc1 |
| 43 nM | COc1ccc(-n2nc(Sc3ccc(Cl)cc3)cc(CC[C@@H](C)NC(=O)[C@H]3CNCC[C@@H]3c3cccc(Cl)c3)c2=O)cc1 |
| 2.4 nM | COc1ccc(-n2nc(Sc3ccc(Cl)cc3)cc(CC[C@@H](C)NC(=O)[C@H]3CNCC[C@@H]3c3ccc(Cl)cc3)c2=O)cc1 |
| 93 nM | COc1ccc(-n2nc(Sc3ccc(Cl)cc3)cc(CC[C@@H](C)N(C)C(=O)C3CNCCC3c3ccc(F)cc3)c2=O)cc1 (some centres undefined) |
| 28 nM | COc1ccc(-n2nc(Sc3ccc(Cl)cc3)cc(CC[C@@H](C)NC(=O)[C@H]3CNC[C@@H]3c3ccc(C)cc3)c2=O)cc1 |
| 47 nM | COc1ccc(N2N=C(Sc3ccc(Cl)cc3)CC(CC[C@@H](C)NC(=O)C3CNC[C@@H]3c3ccc(F)cc3)C2=O)cc1 (single isomer, unassigned; 66) |
| 58 nM | COc1ccc(-n2nc(Sc3ccc(Cl)cc3)cc(CC[C@@H](C)NC(=O)[C@H]3CCNC[C@@H]3c3ccc(Cl)cc3)c2=O)cc1 |
| 13 nM | COc1ccc(-n2nc(Sc3ccc(Cl)cc3)cc(CC[C@@H](C)NC(=O)[C@H]3CNCC[C@@H]3c3ccccc3F)c2=O)cc1 |
| 28 nM | COc1ccc(-n2nc(Sc3ccc(Cl)cc3)cc(CC[C@@H](C)NC(=O)[C@@H]3CNCCN3c3ccc(F)cc3)c2=O)cc1 |
| 19 nM | COc1ccc([C@H]2CNC[C@@H]2C(=O)N[C@H](C)CCc2cc(Sc3ccc(Cl)cc3)nn(-c3ccc(OC)cc3)c2=O)cc1 |
| 60 nM | COc1ccc(-n2nc(Sc3ccc(Cl)cc3)cc(CC[C@@H](C)NC(=O)[C@H]3CNC[C@@H]3c3ccc(F)cc3F)c2=O)cc1 |

These compounds were tested against T1, Melanocortin receptor 4 (assay: Maximum percentage of cAMP accumulation relative to alpha-MSH at human melanocortin 4 receptor at 10 uM).
Format: functional

| SMILES | Max |
| --- | --- |
| COc1ccc(-n2nc(Sc3ccc(Cl)cc3)cc(CC[C@@H](C)NC(=O)[C@H]3CCNC[C@@H]3c3ccc(C(F)(F)F)cc3)c2=O)cc1 | 75% |
| COc1ccc(-n2nc(Sc3ccc(Cl)cc3)cc(CC[C@@H](C)NC(=O)[C@H]3CNC[C@@H]3c3ccccc3)c2=O)cc1 | 103% |
| COc1ccc(-n2nc(Sc3ccc(Cl)cc3)cc(CC[C@@H](C)NC(=O)[C@H]3CNC[C@@H]3c3ccccc3F)c2=O)cc1 | 82% |

Other lines, results leading:

| Max | SMILES |
| --- | --- |
| 70% | COc1ccc(-n2nc(Sc3ccc(Cl)cc3)cc(CC[C@@H](C)NC(=O)[C@H]3CNC[C@@H]3c3ccc(Cl)cc3)c2=O)cc1 |
| 37% | COc1ccc(-n2nc(Sc3ccc(Cl)cc3)cc(CC[C@@H](C)NC(=O)[C@H]3CNCC[C@@H]3c3cccc(Cl)c3)c2=O)cc1 |
| 39% | COc1ccc(-n2nc(Sc3ccc(Cl)cc3)cc(CC[C@@H](C)NC(=O)[C@H]3CNCC[C@@H]3c3ccc(Cl)cc3)c2=O)cc1 |
| 94% | COc1ccc(-n2nc(Sc3ccc(Cl)cc3)cc(CC[C@@H](C)N(C)C(=O)C3CNCCC3c3ccc(F)cc3)c2=O)cc1 (some centres undefined) |
| 67% | COc1ccc(-n2nc(Sc3ccc(Cl)cc3)cc(CC[C@@H](C)NC(=O)[C@H]3CNC[C@@H]3c3ccc(C)cc3)c2=O)cc1 |
| 101% | COc1ccc(-n2nc(Sc3ccc(Cl)cc3)cc(CC[C@@H](C)NC(=O)[C@H]3CCNC[C@@H]3c3ccc(Cl)cc3)c2=O)cc1 |
| 58% | COc1ccc(-n2nc(Sc3ccc(Cl)cc3)cc(CC[C@@H](C)NC(=O)[C@H]3CNCC[C@@H]3c3ccccc3F)c2=O)cc1 |
| 75% | COc1ccc(-n2nc(Sc3ccc(Cl)cc3)cc(CC[C@@H](C)NC(=O)[C@@H]3CNCCN3c3ccc(F)cc3)c2=O)cc1 |
| 67% | COc1ccc([C@H]2CNC[C@@H]2C(=O)N[C@H](C)CCc2cc(Sc3ccc(Cl)cc3)nn(-c3ccc(OC)cc3)c2=O)cc1 |
| 81% | COc1ccc(-n2nc(Sc3ccc(Cl)cc3)cc(CC[C@@H](C)NC(=O)[C@H]3CNC[C@@H]3c3ccc(F)cc3F)c2=O)cc1 |

These compounds were tested against T1, Melanocortin receptor 4 (assay: Effective concentration at human melanocortin 4 receptor in cAMP release assay).
Format: functional

| SMILES | EC50 |
| --- | --- |
| COc1ccc(-n2nc(Sc3ccc(Cl)cc3)cc(CC[C@@H](C)NC(=O)[C@H]3CCNC[C@@H]3c3ccc(C(F)(F)F)cc3)c2=O)cc1 | 710 nM |
| COc1ccc(N2N=C(Sc3ccc(Cl)cc3)CC(CC[C@@H](C)NC(=O)[C@H]3CCNC[C@@H]3c3ccc(F)cc3)C2=O)cc1 (stereo in doubt; 62) | 480 nM |
| COc1ccc(N2N=C(Sc3ccc(Cl)cc3)CC(CC[C@@H](C)NC(=O)[C@@H]3CNCC[C@H]3c3ccc(F)cc3)C2=O)cc1 (stereo in doubt; 61) | 4000 nM |
| COc1ccc(-n2nc(Sc3ccc(Cl)cc3)cc(CC[C@@H](C)NC(=O)[C@H]3CNC[C@@H]3c3ccccc3)c2=O)cc1 | 400 nM |
| COc1ccc(N2N=C(Sc3ccc(Cl)cc3)CC(CC[C@@H](C)NC(=O)C3CNC[C@H]3c3ccc(F)cc3)C2=O)cc1 (single isomer, unassigned; 69) | 740 nM |
| COc1ccc(-n2nc(Sc3ccc(Cl)cc3)cc(CC[C@@H](C)NC(=O)[C@H]3CNC[C@@H]3c3ccccc3F)c2=O)cc1 | 710 nM |
| COc1ccc(N2N=C(Sc3ccc(Cl)cc3)CC(CC[C@@H](C)NC(=O)[C@@H]3CCNC[C@H]3c3ccc(F)cc3)C2=O)cc1 (stereo in doubt; 64) | 2000 nM |

Continued, values first:

| EC50 | SMILES |
| --- | --- |
| 230 nM | COc1ccc(-n2nc(Sc3ccc(Cl)cc3)cc(CC[C@@H](C)NC(=O)[C@H]3CNC[C@@H]3c3ccc(Cl)cc3)c2=O)cc1 |
| 680 nM | COc1ccc(-n2nc(Sc3ccc(Cl)cc3)cc(CC[C@@H](C)NC(=O)[C@H]3CNCC[C@@H]3c3cccc(Cl)c3)c2=O)cc1 |
| 210 nM | COc1ccc(-n2nc(Sc3ccc(Cl)cc3)cc(CC[C@@H](C)NC(=O)[C@H]3CNCC[C@@H]3c3ccc(Cl)cc3)c2=O)cc1 |
| 410 nM | COc1ccc(-n2nc(Sc3ccc(Cl)cc3)cc(CC[C@@H](C)N(C)C(=O)C3CNCCC3c3ccc(F)cc3)c2=O)cc1 (some centres undefined) |
| 750 nM | COc1ccc(-n2nc(Sc3ccc(Cl)cc3)cc(CC[C@@H](C)NC(=O)[C@H]3CNC[C@@H]3c3ccc(C)cc3)c2=O)cc1 |
| 1200 nM | COc1ccc(N2N=C(Sc3ccc(Cl)cc3)CC(CC[C@@H](C)NC(=O)C3CNC[C@@H]3c3ccc(F)cc3)C2=O)cc1 (single isomer, unassigned; 66) |
| 150 nM | COc1ccc(-n2nc(Sc3ccc(Cl)cc3)cc(CC[C@@H](C)NC(=O)[C@H]3CCNC[C@@H]3c3ccc(Cl)cc3)c2=O)cc1 |
| 550 nM | COc1ccc(-n2nc(Sc3ccc(Cl)cc3)cc(CC[C@@H](C)NC(=O)[C@H]3CNCC[C@@H]3c3ccccc3F)c2=O)cc1 |
| 1100 nM | COc1ccc(-n2nc(Sc3ccc(Cl)cc3)cc(CC[C@@H](C)NC(=O)[C@@H]3CNCCN3c3ccc(F)cc3)c2=O)cc1 |
| 430 nM | COc1ccc([C@H]2CNC[C@@H]2C(=O)N[C@H](C)CCc2cc(Sc3ccc(Cl)cc3)nn(-c3ccc(OC)cc3)c2=O)cc1 |
| 200 nM | COc1ccc(-n2nc(Sc3ccc(Cl)cc3)cc(CC[C@@H](C)NC(=O)[C@H]3CNC[C@@H]3c3ccc(F)cc3F)c2=O)cc1 |
